In PubChem BioAssay (NCI):
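Each compound was tested at five concentrations against cells in 96-well plates for 48 hours. Definition used: TGI = concentration required for complete inhibition of growth.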

Legend:
Experiment in all cases: DTP human tumour cell line panel, 48 h
786-0 renal = test system: 786-0 renal
A498 renal = test system: A498 renal
A549 NSCLC = test system: A549 NSCLC
ACHN renal = test system: ACHN renal
BT-549 breast = test system: BT-549 breast
CAKI-1 renal = test system: CAKI-1 renal
COLO 205 colon = test system: COLO 205 colon
DU-145 prostate = test system: DU-145 prostate
EKVX NSCLC = test system: EKVX NSCLC
HCT-116 colon = test system: HCT-116 colon
HCT-15 colon = test system: HCT-15 colon
HL-60(TB) leukemia = test system: HL-60(TB) leukemia
HOP-62 NSCLC = test system: HOP-62 NSCLC
HOP-92 NSCLC = test system: HOP-92 NSCLC
HS 578T breast = test system: HS 578T breast
HT29 colon = test system: HT29 colon
IGROV1 ovarian = test system: IGROV1 ovarian
K-562 leukemia = test system: K-562 leukemia
KM12 colon = test system: KM12 colon
LOX IMVI melanoma = test system: LOX IMVI melanoma
M14 melanoma = test system: M14 melanoma
MALME-3M melanoma = test system: MALME-3M melanoma
MCF7 breast = test system: MCF7 breast
MDA-MB-231 breast = test system: MDA-MB-231 breast
MDA-MB-435 = test system: MDA-MB-435
MDA-N = test system: MDA-N
MOLT-4 leukemia = test system: MOLT-4 leukemia
NCI-H226 lung = test system: NCI-H226 lung
NCI-H23 lung = test system: NCI-H23 lung
NCI-H460 lung = test system: NCI-H460 lung
NCI-H522 lung = test system: NCI-H522 lung
NCI/ADR-RES ovarian = test system: NCI/ADR-RES ovarian
OVCAR-3 ovarian = test system: OVCAR-3 ovarian
OVCAR-4 ovarian = test system: OVCAR-4 ovarian
OVCAR-5 ovarian = test system: OVCAR-5 ovarian
OVCAR-8 ovarian = test system: OVCAR-8 ovarian
PC-3 prostate = test system: PC-3 prostate
RPMI-8226 leukemia = test system: RPMI-8226 leukemia
RXF 393 renal = test system: RXF 393 renal
SF-268 CNS = test system: SF-268 CNS
SF-295 CNS = test system: SF-295 CNS
SF-539 CNS = test system: SF-539 CNS
SK-MEL-2 melanoma = test system: SK-MEL-2 melanoma
SK-MEL-28 melanoma = test system: SK-MEL-28 melanoma
SK-MEL-5 melanoma = test system: SK-MEL-5 melanoma
SK-OV-3 ovarian = test system: SK-OV-3 ovarian
SN12C renal = test system: SN12C renal
SNB-19 CNS = test system: SNB-19 CNS
SNB-75 CNS = test system: SNB-75 CNS
SR leukemia = test system: SR leukemia
SW-620 colon = test system: SW-620 colon
T-47D breast = test system: T-47D breast
TK-10 renal = test system: TK-10 renal
U251 CNS = test system: U251 CNS
UACC-257 melanoma = test system: UACC-257 melanoma
UACC-62 melanoma = test system: UACC-62 melanoma
UO-31 renal = test system: UO-31 renal
CCRF-CEM leukemia = test system: CCRF-CEM leukemia

## Clc1cccc(Cl)c1C(Nc1nncs1)Nc1nncs1
786-0 renal
  TGI: > 100 µM
A498 renal
  TGI: > 100 µM
A549 NSCLC
  TGI: > 100 µM
ACHN renal
  TGI: > 100 µM
BT-549 breast
  TGI: > 100 µM
CAKI-1 renal
  TGI: > 100 µM
COLO 205 colon
  TGI: > 100 µM
DU-145 prostate
  TGI: > 100 µM
EKVX NSCLC
  TGI: > 100 µM
HCT-116 colon
  TGI: > 100 µM
HCT-15 colon
  TGI: > 100 µM
HL-60(TB) leukemia
  TGI: 43.9 µM
HOP-62 NSCLC
  TGI: > 100 µM
HOP-92 NSCLC
  TGI: > 100 µM
HS 578T breast
  TGI: > 100 µM
HT29 colon
  TGI: > 100 µM
IGROV1 ovarian
  TGI: > 100 µM
K-562 leukemia
  TGI: > 100 µM
KM12 colon
  TGI: > 100 µM
LOX IMVI melanoma
  TGI: > 100 µM
M14 melanoma
  TGI: > 100 µM
MALME-3M melanoma
  TGI: > 100 µM
MCF7 breast
  TGI: > 100 µM
MDA-MB-231 breast
  TGI: > 100 µM
MDA-MB-435
  TGI: 60.6 µM
MDA-N
  TGI: 25.5 µM
MOLT-4 leukemia
  TGI: > 100 µM
NCI-H226 lung
  TGI: 99.7 µM
NCI-H23 lung
  TGI: > 100 µM
NCI-H460 lung
  TGI: 68.5 µM
NCI-H522 lung
  TGI: 70.9 µM
NCI/ADR-RES ovarian
  TGI: > 100 µM
OVCAR-3 ovarian
  TGI: > 100 µM
OVCAR-4 ovarian
  TGI: > 100 µM
OVCAR-5 ovarian
  TGI: > 100 µM
OVCAR-8 ovarian
  TGI: > 100 µM
PC-3 prostate
  TGI: > 100 µM
RPMI-8226 leukemia
  TGI: > 100 µM
RXF 393 renal
  TGI: > 100 µM
SF-268 CNS
  TGI: > 100 µM
SF-295 CNS
  TGI: > 100 µM
SF-539 CNS
  TGI: > 100 µM
SK-MEL-2 melanoma
  TGI: > 100 µM
SK-MEL-28 melanoma
  TGI: 54.5 µM
SK-MEL-5 melanoma
  TGI: > 100 µM
SK-OV-3 ovarian
  TGI: > 100 µM
SN12C renal
  TGI: > 100 µM
SNB-19 CNS
  TGI: > 100 µM
SNB-75 CNS
  TGI: > 100 µM
SR leukemia
  TGI: > 100 µM
SW-620 colon
  TGI: > 100 µM
T-47D breast
  TGI: > 100 µM
TK-10 renal
  TGI: 84.1 µM
U251 CNS
  TGI: > 100 µM
UACC-257 melanoma
  TGI: 71.1 µM
UACC-62 melanoma
  TGI: > 100 µM
UO-31 renal
  TGI: > 100 µM

## CC(NC(=O)CNP(=O)(c1ccccc1)c1ccccc1)C(=O)NC(Cc1ccccc1)C(=O)OCc1ccccc1 (stereo not drawn)
786-0 renal
  TGI: 48.1 µM
A498 renal
  TGI: > 100 µM
A549 NSCLC
  TGI: > 100 µM
BT-549 breast
  TGI: > 100 µM
CAKI-1 renal
  TGI: > 100 µM
CCRF-CEM leukemia
  TGI: > 10 µM
COLO 205 colon
  TGI: > 10 µM
DU-145 prostate
  TGI: > 100 µM
EKVX NSCLC
  TGI: > 100 µM
HCT-116 colon
  TGI: > 100 µM
HCT-15 colon
  TGI: > 100 µM
HL-60(TB) leukemia
  TGI: > 100 µM
HOP-62 NSCLC
  TGI: > 100 µM
HOP-92 NSCLC
  TGI: > 100 µM
HS 578T breast
  TGI: > 100 µM
HT29 colon
  TGI: > 100 µM
IGROV1 ovarian
  TGI: > 100 µM
K-562 leukemia
  TGI: > 10 µM
KM12 colon
  TGI: > 100 µM
LOX IMVI melanoma
  TGI: 87.8 µM
M14 melanoma
  TGI: > 100 µM
MALME-3M melanoma
  TGI: > 100 µM
MCF7 breast
  TGI: 55 µM
MDA-MB-231 breast
  TGI: 96.6 µM
MDA-MB-435
  TGI: > 100 µM
MDA-N
  TGI: > 100 µM
MOLT-4 leukemia
  TGI: 47.1 µM
NCI-H226 lung
  TGI: > 100 µM
NCI-H23 lung
  TGI: > 100 µM
NCI-H522 lung
  TGI: 49.8 µM
NCI/ADR-RES ovarian
  TGI: > 100 µM
OVCAR-3 ovarian
  TGI: > 100 µM
OVCAR-5 ovarian
  TGI: > 100 µM
OVCAR-8 ovarian
  TGI: > 100 µM
PC-3 prostate
  TGI: > 100 µM
RPMI-8226 leukemia
  TGI: 98.5 µM
RXF 393 renal
  TGI: 75.5 µM
SF-268 CNS
  TGI: 57.2 µM
SF-295 CNS
  TGI: 42.5 µM
SF-539 CNS
  TGI: > 100 µM
SK-MEL-2 melanoma
  TGI: > 100 µM
SK-MEL-28 melanoma
  TGI: 49.3 µM
SK-MEL-5 melanoma
  TGI: 60.5 µM
SK-OV-3 ovarian
  TGI: 51.3 µM
SN12C renal
  TGI: > 100 µM
SNB-19 CNS
  TGI: > 100 µM
SNB-75 CNS
  TGI: 48.5 µM
SR leukemia
  TGI: 70.8 µM
SW-620 colon
  TGI: > 100 µM
T-47D breast
  TGI: > 100 µM
TK-10 renal
  TGI: > 100 µM
U251 CNS
  TGI: 62.3 µM
UACC-257 melanoma
  TGI: > 100 µM
UACC-62 melanoma
  TGI: > 100 µM
UO-31 renal
  TGI: > 100 µM

## O=C1Nc2ccccc2S/C1=C\c1ccc(C(F)(F)F)cc1
786-0 renal
  TGI: > 100 µM
A498 renal
  TGI: > 100 µM
A549 NSCLC
  TGI: > 100 µM
ACHN renal
  TGI: > 100 µM
BT-549 breast
  TGI: > 100 µM
CAKI-1 renal
  TGI: 93.3 µM
COLO 205 colon
  TGI: > 100 µM
DU-145 prostate
  TGI: > 100 µM
EKVX NSCLC
  TGI: > 100 µM
HCT-116 colon
  TGI: > 100 µM
HCT-15 colon
  TGI: > 100 µM
HL-60(TB) leukemia
  TGI: > 100 µM
HOP-62 NSCLC
  TGI: > 100 µM
HOP-92 NSCLC
  TGI: > 100 µM
HS 578T breast
  TGI: > 100 µM
HT29 colon
  TGI: > 100 µM
IGROV1 ovarian
  TGI: > 100 µM
K-562 leukemia
  TGI: > 100 µM
KM12 colon
  TGI: > 100 µM
LOX IMVI melanoma
  TGI: > 100 µM
M14 melanoma
  TGI: > 100 µM
MALME-3M melanoma
  TGI: > 100 µM
MCF7 breast
  TGI: > 100 µM
MDA-MB-231 breast
  TGI: > 100 µM
MDA-MB-435
  TGI: > 100 µM
MDA-N
  TGI: > 100 µM
MOLT-4 leukemia
  TGI: > 100 µM
NCI-H226 lung
  TGI: > 100 µM
NCI-H460 lung
  TGI: > 100 µM
NCI-H522 lung
  TGI: > 100 µM
NCI/ADR-RES ovarian
  TGI: > 100 µM
OVCAR-3 ovarian
  TGI: > 100 µM
OVCAR-4 ovarian
  TGI: > 100 µM
OVCAR-5 ovarian
  TGI: > 100 µM
OVCAR-8 ovarian
  TGI: > 100 µM
PC-3 prostate
  TGI: > 100 µM
RPMI-8226 leukemia
  TGI: > 100 µM
RXF 393 renal
  TGI: > 100 µM
SF-268 CNS
  TGI: > 100 µM
SF-295 CNS
  TGI: > 100 µM
SF-539 CNS
  TGI: > 100 µM
SK-MEL-2 melanoma
  TGI: > 100 µM
SK-MEL-28 melanoma
  TGI: > 100 µM
SK-MEL-5 melanoma
  TGI: > 100 µM
SK-OV-3 ovarian
  TGI: > 100 µM
SN12C renal
  TGI: > 100 µM
SNB-19 CNS
  TGI: > 100 µM
SNB-75 CNS
  TGI: > 100 µM
SR leukemia
  TGI: > 100 µM
SW-620 colon
  TGI: > 100 µM
T-47D breast
  TGI: > 100 µM
TK-10 renal
  TGI: > 100 µM
U251 CNS
  TGI: > 100 µM
UACC-257 melanoma
  TGI: > 100 µM
UACC-62 melanoma
  TGI: > 100 µM
UO-31 renal
  TGI: > 100 µM
